Reference: the NIST ThermoML archive (doi:10.1021/je060271a)

Details: 303.16 K, Liquid, Vibrating tube method

CCCCCC(=O)OCC(COC(=O)CCCCC)(COC(=O)CCCCC)COC(=O)CCCCC [pentaerythritol tetrahexanoate]
Details | mass density [kg/m3]
380.8 kPa | 988.5
382.9 kPa | 988.7
385.3 kPa | 988.6
387.4 kPa | 988.6
454.3 kPa | 988.6
457.1 kPa | 988.6
461.3 kPa | 988.6
465.1 kPa | 988.6
468 kPa | 988.6
470.8 kPa | 988.7
474.1 kPa | 988.6
478 kPa | 988.6
481.2 kPa | 988.6
484.7 kPa | 988.7
488.4 kPa | 988.7
491.7 kPa | 988.7
495.5 kPa | 988.7
498.8 kPa | 988.7
502.4 kPa | 988.7
505.6 kPa | 988.6
509.2 kPa | 988.8
513.8 kPa | 988.7
517.4 kPa | 988.7
521.2 kPa | 988.6
525.6 kPa | 988.7
529.6 kPa | 988.8
534.1 kPa | 988.7
537.9 kPa | 988.6
542.3 kPa | 988.9
546.9 kPa | 988.7
550.9 kPa | 988.7
555.3 kPa | 988.8
559.5 kPa | 988.8
564.3 kPa | 988.8
569 kPa | 988.8
574.4 kPa | 988.9
692 kPa | 988.8
698.5 kPa | 988.8
706.1 kPa | 988.8
712.5 kPa | 988.8
719.3 kPa | 988.9
727 kPa | 988.7
734.3 kPa | 988.8
741.2 kPa | 988.8
748.1 kPa | 988.8
756.7 kPa | 988.8
763.8 kPa | 988.9
771.6 kPa | 988.9
779.1 kPa | 988.8
788.5 kPa | 988.9
796.3 kPa | 988.8
804.1 kPa | 988.8
811.9 kPa | 988.9
821.6 kPa | 988.9
829.8 kPa | 988.8
848 kPa | 988.8
856.6 kPa | 988.9
864.9 kPa | 989
1404 kPa | 989.4
1416.2 kPa | 989.4
1431.1 kPa | 989.2
1443.8 kPa | 989.3
1456.5 kPa | 989.3
1642.7 kPa | 989.5
1657.5 kPa | 989.4
1672.3 kPa | 989.4
1686.8 kPa | 989.3
1704.7 kPa | 989.4
1818.6 kPa | 989.6
1834.9 kPa | 989.6
1940.6 kPa | 989.6
1957.6 kPa | 989.6
1975.3 kPa | 989.7
1996.3 kPa | 989.5
2014.2 kPa | 989.6
2035.9 kPa | 989.6
2053.6 kPa | 989.7
2072.3 kPa | 989.7
2129.6 kPa | 989.6
2148.3 kPa | 989.7
2190 kPa | 989.9
2209.4 kPa | 989.7
2272.4 kPa | 989.7
4203.4 kPa | 991.1
4236.8 kPa | 991
4264.7 kPa | 991.2
4292.6 kPa | 991.1
4320.1 kPa | 991.1
4352.9 kPa | 991.2
4379.7 kPa | 991.1
4406.5 kPa | 991.2
4438.4 kPa | 991.1
4464.5 kPa | 991.2
4490.5 kPa | 991.3
4516.1 kPa | 991.2
4546.4 kPa | 991.3
4570.9 kPa | 991.3
4594.9 kPa | 991.4
4622.1 kPa | 991.2
4643.9 kPa | 991.3
4664.2 kPa | 991.3
4683 kPa | 991.5
4704.7 kPa | 991.4
4723 kPa | 991.4
4740.8 kPa | 991.3
4757.6 kPa | 991.4
4774.9 kPa | 991.4
4794.3 kPa | 991.6
4810.9 kPa | 991.4
4827 kPa | 991.4
4842.8 kPa | 991.5
4861.3 kPa | 991.4
4908.5 kPa | 991.5
5374.3 kPa | 991.8
5390.7 kPa | 991.8
5411 kPa | 991.8
5427.2 kPa | 991.8
5447.1 kPa | 991.9
5464.4 kPa | 991.8
5481.4 kPa | 991.9
5498.1 kPa | 991.8
5518.7 kPa | 991.9
5591.9 kPa | 992
5609.7 kPa | 992
5627.2 kPa | 991.9
5647.7 kPa | 991.9
5665.4 kPa | 992
5875.7 kPa | 992.1
5894 kPa | 992.1
5931.3 kPa | 992.1
5953.6 kPa | 992.2
5972 kPa | 992.2
5990.6 kPa | 992.2
6012.9 kPa | 992.2
6031.6 kPa | 992.2
6050.3 kPa | 992.2
6072.9 kPa | 992.2
6111.5 kPa | 992.2
10602 kPa | 995.1
10632 kPa | 995.1
10660 kPa | 995.1
10689 kPa | 995
10724 kPa | 995.1
10753 kPa | 995.2
10782 kPa | 995.1
